The target in one series is cSrc (Homo sapiens, UniProt P12931). In words: c-Src enzyme inhibition (FRET). In kind it is biochemical. As to conditions: Table 4a1. The method, then: (§1) The enzyme inhibitory activities of compounds disclosed herein are determined by FRET using synthetic peptides labelled with both donor and acceptor fluorophores (Z-LYTE, Invitrogen Ltd., Paisley, UK).
(§2) The relevant enzyme (3000 ng/mL or 2000 ng/mL respectively, 2.5 μL) is incubated with the test compound (either 4 μg/mL, 0.4 μg/mL, 0.04 μg/mL, or 0.004 μg/mL, 2.5 μL each) for 2 hr at RT. The FRET peptides (8 μM, 2.5 μL), and appropriate ATP solutions (2.5 μL, 800 μM for c-Src, and 60 μM ATP for Syk) are then added to the enzymes/compound mixtures and incubated for 1 hr. Development reagent (protease, 5 μL) is added for 1 hr prior to detection in a fluorescence microplate reader (Varioskan® Flash, ThermoFisher Scientific).
(§3) In all cases, the site-specific protease cleaves non-phosphorylated peptide only and eliminates the FRET signal. Phosphorylation levels of each reaction are calculated using the ratio of coumarin emission (donor) over fluorescein emission (acceptor), for which high ratios indicate high phosphorylation and low ratios indicate low phosphorylation levels.

For another series, the system named is d-U937 cells. In words: Cell viability: MTT assay. In kind it is cell-based, human. As to conditions: 1 μg/mL. The method, then:
(l) The Effect of Test Compounds on Cell Viability: MTT Assay
Differentiated U937 cells are pre-incubated with each test compound (final concentration 1 μg/mL or 10 μg/mL in 200 μL media indicated below) under two protocols: the first for 4 hr in 5% FCS RPMI1640 media and the second in 10% FCS RPMI1640 media for 24 h. The supernatant is replaced with new media (200 μL) and MTT stock solution (10 μL, 5 mg/mL) is added to each well. After incubation for 1 hr the media are removed, DMSO (200 μL) is added to each well and the plates are shaken lightly for 1 hr prior to reading the absorbance at 550 nm. The percentage loss of cell viability is calculated for each well relative to vehicle (0.5% DMSO) treatment. Consequently an apparent increase in cell viability for drug treatment relative to vehicle is tabulated as a negative percentage.

The target in another series is GSK3α (Homo sapiens, UniProt P49840). In words: GSK 3α enzyme inhibition (FRET), Method 1. Format: biochemical. As to conditions: Table 4a1. How it is done: as §1
Sequence of GSK3α (P49840 whole entry): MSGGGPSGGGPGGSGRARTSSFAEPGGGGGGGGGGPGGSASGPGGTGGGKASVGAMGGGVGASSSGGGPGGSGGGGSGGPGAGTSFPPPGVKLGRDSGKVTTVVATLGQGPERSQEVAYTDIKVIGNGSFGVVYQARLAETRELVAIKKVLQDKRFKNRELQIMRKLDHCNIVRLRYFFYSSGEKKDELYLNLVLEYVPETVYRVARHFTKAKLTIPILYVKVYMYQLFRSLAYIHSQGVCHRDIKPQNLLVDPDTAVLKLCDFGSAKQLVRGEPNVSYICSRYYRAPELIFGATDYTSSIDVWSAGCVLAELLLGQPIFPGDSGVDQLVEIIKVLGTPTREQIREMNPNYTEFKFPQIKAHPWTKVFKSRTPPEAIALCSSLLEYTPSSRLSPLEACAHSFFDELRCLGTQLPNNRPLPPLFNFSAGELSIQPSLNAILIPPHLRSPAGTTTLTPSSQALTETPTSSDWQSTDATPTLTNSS
The following two assay variants are used for determination of GSK 3a inhibition.
The inhibitory activities of compounds of the invention against the GSK 3a enzyme isoform (Invitrogen), are evaluated by determining the level of activation/phosphorylation of the target peptide. The GSK3-α protein (500 ng/mL, 2.5 μL) is mixed with the test compound (2.5 μL at either 4 μg/mL, 0.4 μg/mL, 0.04 μg/mL, or 0.004 μg/mL) for 2 hr at RT. The FRET peptide (8 μM, 2.5 μL), which is a phosphorylation target for GSK3α, and ATP (40 μM, 2.5 μL) are then added to the enzyme/compound mixture and the resulting mixture incubated for 1 hr. Development reagent (protease, 5 μL) is added for 1 hr prior to detection in a fluorescence microplate reader (Varioskan® Flash, ThermoFisher Scientific).
as §3

Series [1] relates to ICAM-1 expression, BEAS2B cells. Nature of the series: Poly I:C-induced ICAM-1 expression in BEAS2B cells. The following applies: Homo sapiens, BEAS-2B; read-out: Poly IC induced ICAM1 in BEAS2B, IC50. Format: cell-based. The method, then:
(f) Poly I:C-Induced ICAM-1 Expression in BEAS2B Cells
Poly I:C is used in these studies as a simple, RNA virus mimic. Poly I:C-Oligofectamine mixture (1 μg/mL Poly I:C, ±2% Oligofectamine, 25 μL; Invivogen Ltd., San Diego, Calif., and Invitrogen, Carlsbad, Calif., respectively) is transfected into BEAS2B cells (human bronchial epithelial cells, ATCC). Cells are pre-incubated with final concentrations of test compounds for 2 hr and the level of ICAM1 expression on the cell surface is determined by cell-based ELISA. At a time point 18 hr after poly I:C transfection, cells are fixed with 4% formaldehyde in PBS (100 μL) and then endogenous peroxidase is quenched by the addition of washing buffer (100 μL, 0.05% Tween in PBS: PBS-Tween) containing 0.1% sodium azide and 1% hydrogen peroxide. Cells are washed with wash-buffer (3×200 μL). and after blocking the wells with 5% milk in PBS-Tween (100 μL) for 1 hr, the cells are incubated with anti-human ICAM-1 antibody (50 μL; Cell Signalling Technology, Danvers, Mass.) in 1% BSA PBS overnight at 4° C.
The cells are washed with PBS-Tween (3×200 μL) and incubated with the secondary antibody (100 μL; HRP-conjugated anti-rabbit IgG, Dako Ltd., Glostrup, Denmark). […] The ICAM-1 signal is detected by reading the absorbance at 450 nm against a reference wavelength of 655 nm using a spectrophotometer. The cells are then washed with PBS-Tween (3×200 μL) and total cell numbers in each well are determined by reading absorbance at 595 nm after Crystal Violet staining (50 μL of a 2% solution in PBS) and elution by 1% SDS solution (100 μL) in distilled water. The measured OD 450-655 readings are corrected for cell number by dividing with the OD595 reading in each well. The inhibition of ICAM-1 expression is calculated at each concentration of test compound by comparison with vehicle control.

The test system of series [2] is TNFα release, d-U937 cells. In words: LPS-induced TNFα release in d-U937 cells. Format: cell-based. The following applies: Homo sapiens, dU937; relative to 10 μg/mL BIRB796; Table 4c1; read-out: LPS Induced Release of Cytokine in d-U937 Cells, TNFα REC50. The method, then: (§4) (a) LPS-Induced TNFα/IL-8 Release in d-U937Cells
U937 cells, a human monocytic cell line, are differentiated into macrophage-type cells by incubation with PMA (100 ng/mL) for 48 to 72 hr. Cells are pre-incubated with final concentrations of test compound for 2 hr and are then stimulated with LPS (0.1 μg/mL; from E. Coli: 0111:B4, Sigma) for 4 hr. The supernatant is collected for determination of TNFα and IL-8 concentrations by sandwich ELISA (Duo-set, R&D systems). […] The relative 50% effective concentration (REC50) is determined from the resultant concentration-response curve. The inhibition of IL-8 production is calculated at each concentration of test compound by comparison with vehicle control.

Series [3] deals with IL-8 release, d-U937 cells. In words: LPS-induced IL-8 release in d-U937 cells. Format: cell-based. As to conditions: Homo sapiens, dU937; Table 4c1; read-out: LPS Induced Release of Cytokine in d-U937 Cells, IL-8 IC50. The method, then:
as §4
U937 cells, a human monocytic cell line, are differentiated into macrophage-type cells by incubation with PMA (100 ng/mL) for 48 to 72 hr. Cells are pre-incubated with final concentrations of test compound for 2 hr and are then stimulated with LPS (0.1 μg/mL; from E. Coli: 0111:B4, Sigma) for 4 hr. […] The relative 50% effective concentration (REC50) is determined from the resultant concentration-response curve.

Another series concerns the target Syk (Homo sapiens, UniProt P43405). Nature of the series: Syk enzyme inhibition (FRET). The following applies: Table 4a1. In kind it is biochemical. How it is done:
as §1, §2, §3

Bounds are passed on as bounds.

Sequence of cSrc (P12931 whole entry): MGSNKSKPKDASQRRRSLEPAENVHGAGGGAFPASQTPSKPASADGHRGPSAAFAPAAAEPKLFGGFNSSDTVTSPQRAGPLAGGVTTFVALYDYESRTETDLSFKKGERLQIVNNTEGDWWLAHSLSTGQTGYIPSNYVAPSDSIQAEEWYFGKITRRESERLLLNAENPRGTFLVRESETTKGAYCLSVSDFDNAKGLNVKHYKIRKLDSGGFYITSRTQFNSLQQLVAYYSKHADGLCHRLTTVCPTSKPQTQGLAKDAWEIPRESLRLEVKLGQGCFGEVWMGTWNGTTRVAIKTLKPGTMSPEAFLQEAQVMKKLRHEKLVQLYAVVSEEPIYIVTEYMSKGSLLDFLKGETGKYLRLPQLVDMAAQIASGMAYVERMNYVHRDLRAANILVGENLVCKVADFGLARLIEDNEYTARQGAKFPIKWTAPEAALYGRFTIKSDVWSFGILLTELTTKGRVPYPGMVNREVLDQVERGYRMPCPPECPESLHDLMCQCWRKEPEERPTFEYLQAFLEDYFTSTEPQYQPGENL

With `COc1cc(Nc2nccc(Oc3ccc(NC(=O)Nc4cc(C(C)(C)C)nn4-c4ccc(OC)nc4)c4ccccc34)n2)cc(C(=O)NCCN2CCOCC2)c1` [Example 57, 3-((4-((4-(3-(3-(tert-butyl)-1-(6-methoxypyridin-3-yl)-1H-pyrazol-5-yl)ureido)naphthalen-1-yl)oxy)pyrimidin-2-yl)amino)-5-methoxy-N-(2-morpholinoethyl)benzamide], the IC50 against cSrc is below 1 nM; against GSK3α, 283 nM; in series [1] it was 1.9 nM; in series [3], 1.5 nM. For the same compound, in the series with d-U937 cells, the “Cell viability at time point in d-U937 cells, 4 h” value was “−ve (−ve and +ve indicate that the value is below and above respectively, the no significant effect threshold, defined as 30% inhibition at 1 μg/mL at the time point indicated)”. Besides, the “Cell viability at time point in d-U937 cells, 24 h” value (“Cell viability at time point … 24 h” below) in the series with d-U937 cells is “−ve (−ve and +ve indicate that the value is below and above respectively, the no significant effect threshold, defined as 30% inhibition at 1 μg/mL at the time point indicated)”. Also, the EC50 in series [2] was determined as 0.6 nM.
Consider `C=C(C)c1cc(NC(=O)Nc2ccc(Oc3ccnc(Nc4cc(OC)cc(C(=O)NCCN5CCOCC5)c4)n3)c3ccccc23)n(-c2ccc(OC)cc2)n1` [Example 86, 3-Methoxy-5-((4-((4-(3-(1-(4-methoxyphenyl)-3-(prop-1-en-2-yl)-1H-pyrazol-5-yl)ureido)naphthalen-1-yl)oxy)pyrimidin-2-yl)amino)-N-(2-morpholinoethyl)-benzamide], for which the concentration for half-maximal inhibition (IC50) was 8 nM against cSrc, 20 nM at Syk, above 13000 nM at GSK3α and 1.5 nM in series [3]. Besides, the “Cell viability at time point in d-U937 cells, 4 h” value with d-U937 cells is “−ve (−ve and +ve indicate that the value is below and above respectively, the no significant effect threshold, defined as 30% inhibition at 1 μg/mL at the time point indicated)”. In the series with d-U937 cells, the “Cell viability at time point … 24 h” value was “−ve (−ve and +ve indicate that the value is below and above respectively, the no significant effect threshold, defined as 30% inhibition at 1 μg/mL at the time point indicated)”.
Take `COc1cc(Nc2nccc(Oc3ccc(NC(=O)Nc4cc(C(C)C)nn4-c4ccc(C)cc4)c4ccccc34)n2)cc(C(=O)NCCO)c1` [Example 63, N-(2-hydroxyethyl)-3-((4-((4-(3-(3-isopropyl-1-(p-tolyl)-1H-pyrazol-5-yl)ureido)naphthalen-1-yl)oxy)pyrimidin-2-yl)amino)-5-methoxybenzamide]: the IC50 was 37 nM on cSrc, 865 nM against Syk, 10.1 nM in series [1] and 1.4 nM in series [3]. Also, the “Cell viability at time point in d-U937 cells, 4 h” value in the series on d-U937 cells was “−ve (−ve and +ve indicate that the value is below and above respectively, the no significant effect threshold, defined as 30% inhibition at 1 μg/mL at the time point indicated)”. The “Cell viability at time point … 24 h” value in the series on d-U937 cells was “−ve (−ve and +ve indicate that the value is below and above respectively, the no significant effect threshold, defined as 30% inhibition at 1 μg/mL at the time point indicated)”. Also, the EC50 in series [2] came out at 0.7 nM.
For `COc1ccc(-n2nc(C(C)C)cc2NC(=O)Nc2ccc(Oc3ccnc(Nc4cccc(C(=O)NCCN5CCOCC5)c4)n3)c3ccccc23)cc1` [Example 20, 3-((4-((4-(3-(3-isopropyl-1-(4-methoxyphenyl)-1H-pyrazol-5-yl)ureido)naphthalen-1-yl)oxy)pyrimidin-2-yl)amino)-N-(2-morpholinoethyl)benzamide], the “Cell viability at time point in d-U937 cells, 4 h” value with d-U937 cells was “−ve (−ve and +ve indicate that the value is below and above respectively, the no significant effect threshold, defined as 30% inhibition at 1 μg/mL at the time point indicated)”. Also, in the series on d-U937 cells, the “Cell viability at time point … 24 h” value was “−ve (−ve and +ve indicate that the value is below and above respectively, the no significant effect threshold, defined as 30% inhibition at 1 μg/mL at the time point indicated)”. Besides, the IC50 against Syk worked out at 15 nM; against GSK3α it was 317 nM. Moreover, the EC50 in series [2] came to 1.4 nM.
On to `COc1ccc(-n2nc(C(C)(C)C)cc2NC(=O)Nc2ccc(Oc3ccnc(Nc4cc(OC)cc(C(=O)NCCN5CCOCC5)c4)n3)c3ccccc23)cc1` [Example 54, 3-((4-((4-(3-(3-(tert-butyl)-1-(4-methoxyphenyl)-1H-pyrazol-5-yl)ureido)naphthalen-1-yl)oxy)pyrimidin-2-yl)amino)-5-methoxy-N-(2-morpholinoethyl)benzamide], for which the “Cell viability at time point in d-U937 cells, 4 h” value with d-U937 cells was “−ve (−ve and +ve indicate that the value is below and above respectively, the no significant effect threshold, defined as 30% inhibition at 1 μg/mL at the time point indicated)”. In the series with d-U937 cells, the “Cell viability at time point … 24 h” value was “−ve (−ve and +ve indicate that the value is below and above respectively, the no significant effect threshold, defined as 30% inhibition at 1 μg/mL at the time point indicated)”. For the same compound, the 50% inhibitory concentration (IC50) was 5 nM at Syk, 217 nM against GSK3α and 0.8 nM in series [3]. In series [2], the EC50 was 0.2 nM.
As for `COc1ccc(-n2nc(C(C)(C)C)cc2NC(=O)Nc2ccc(Oc3cc(Nc4cc(OC)cc(C(=O)NCCN5CCOCC5)c4)ncn3)c(C)c2C)cc1` [Example 91, 3-((6-(4-(3-(3-(tert-Butyl)-1-(4-methoxyphenyl)-1H-pyrazol-5-yl)ureido)-2,3-dimethylphenoxy)pyrimidin-4-yl)amino)-5-methoxy-N-(2-morpholinoethyl)benzamide], the half-maximal inhibitory concentration (IC50) at cSrc is below 1.3 nM; on Syk, 131 nM; against GSK3α, 3520 nM.

In general, IC50 refers to the point on the concentration scale where inhibition reaches its midpoint.

Values taken from patent US20140057915A1, “KINASE INHIBITORS” (TOPIVERT PHARMA LIMITED, priority 2012, published 2014).
